Assays:
[1] = The compound was evaluated for the inhibition of [125I]- Angiotensin II (AII) binding to rat mesenteric membranes; format: cell membranes, Membrane
[2] = organism: Oryctolagus cuniculus; assay: The compound was evaluated for the inhibition of angiotensin II (AII) induced rabbit aorta constriction; format: functional
[3] = tested on: Rattus norvegicus; assay: The compound was evaluated for the inhibition of Angiotensin II (AII) pressor response in conscious normotensive rats; format: functional; conditions: read-out: ID50 (the source's name)

For `CCCCc1ncc(/C=C\C(=O)O)n1Cc1ccccc1Cl`, which IC50 [1] is on record?
Its IC50 is 8.9 µM.

And the Kb [2]?
The Kb was 810 nM.

For `CCCCc1ncc(/C=C(/Cc2ccsc2)C(=O)O)n1Cc1ccccc1Cl`, which ED50 [3] is on record?
The ED50 was 3.6 mg/kg.

And the Kb [2]?
Its Kb is 51 nM.

What does the source list for `CCCCc1nc(Cl)c(CC(=O)O)n1Cc1ccccc1Cl`?
ED50 [3]: 30 mg/kg; Kb [2]: 2700 nM

Which results are given for `CCCCc1ncc(/C=C(/Cc2ccccc2)C(=O)O)n1Cc1ccccc1Cl`?
IC50 [1]: 2.6 µM; ED50 [3]: 14 mg/kg; Kb [2]: 64 nM

Which ED50 [3] does the source give for `CCCCc1ncc(/C=C(/Cc2ccsc2)C(=O)O)n1Cc1ccc(C(=O)O)cc1` here?
Its ED50 is 0.08 mg/kg.

And the Kb [2]?
The Kb was 0.21 nM.

With `CCCCc1ncc(CC(=O)O)n1Cc1ccccc1Cl` as the compound, how does the ED50 [3] read?
Its ED50 is 22.5 mg/kg.

— ChEMBL document CHEMBL1126479, “Refinement of a molecular model of angiotensin II (AII) employed in the discovery of potent nonpeptide antagonists” (Bioorg Med Chem Lett, 1993)
